Measured values taken from US20250345318A1, “COMPOUND AND USE THEREOF IN PREVENTING OR TREATING RADIATION DAMAGE” (SIMCERE PHARMACEUTICAL CO., LTD., priority 2022, published 2025).

What was measured:
[1] = tested on: lung tissue; experiment: Inflammation level in lung tissue of xenograft mice (RT-PCR, HE) (Example 21); assay type: in vivo
Procedure: After the modeling in Example 20 was completed, the inflammation level and DNA damage in the lung tissue were detected by the following specific procedures: 3 mice were randomly selected from each group to provide the lung tissue. About 20-30 mg of lung tissue was collected from each mouse in a centrifuge tube. The total RNA was isolated and extracted using the TRIzol reagent (Invitrogen) for RT-PCR (Reverse Transcription-Polymerase Chain Reaction) detection. The RNA was reversely transcribed into cDNA using a reverse transcription kit from Vazyme. Reaction system: 42° C., 2 min; 37° C., 15 min; 85° C., 5 s. The samples were preserved in a refrigerator at […] or −80° C. for later use. 30-35 PCR amplification cycles were performed. The data were analyzed by the ΔΔCt method using glyceraldehyde-3-phosphate dehydrogenase (GAPDH) as an internal standard and the AceQ qPCR SYBR Green Master Mix fluorescent quantitative PCR reagent from Vazyme on the 7900HT high throughput flash real-time fluorescent quantitative PCR system from Thermo Fisher Scientific for PCR assay. The results are shown in FIG. 29, with the following specific conditions: […]

[2] = tested on: IEC-6 cells; experiment: Western blot of DNA repair and apoptosis proteins in irradiated IEC-6 cells (Example 14); assay type: cell-based
[3] = tested on: C57BL/6 male mice; experiment: Survival of mice after abdominal X-ray irradiation (Example 2); assay type: in vivo
Procedure: C57BL/6 male mice (26.7±1.0 g in body weight) aged 10 weeks were divided into two groups of 10 mice each. After acclimating to the environment, JAC4 (100 mg/kg) or an equal volume of vehicle (polyethylene glycol:ethanol:physiological saline=47.5:7.5:50, v/v/v) was orally administered to the mice once daily for 7 consecutive days. After that, the mice were subjected to abdominal X-ray irradiation (12 Gy) and JAC4 or vehicle treatment was continued. After 3 days, the administration of JAC4 or vehicle was discontinued. The status was observed daily and the body weights of the mice were recorded.

[4] = tested on: IEC-6 cells; experiment: Early apoptosis by Annexin V-PI staining in irradiated IEC-6 cells (Example 13); assay type: cell-based; details: 1 μM JAC4 24 h + 12 Gy X-ray, 24 h after
Procedure: The apoptosis of IEC-6 cells was determined by Annexin V-PI staining and the early apoptosis rates of IEC-6 cells after different treatments were summarized (***p<0.001). The procedures for the detection by Annexin V-PI staining are as follows: IEC-6 cells were seeded in a 6-well plate at 2×10^5 cells/well. After adhesion, the cells were treated with 1 μM JAC4 or DMSO for 24 h and subjected to 12 Gy of X-ray radiation. After 24 h, the cells were harvested in PBS and analyzed using the Annexin V apoptosis detection kit (BD, FACS AriaIII, USA) on a flow cytometer.

[5] = tested on: JWA^IEC-wt mice; experiment: X-ray-induced intestinal injury in JWA^IEC-wt mice (Example 12); assay type: in vivo; details: ABI 10 Gy
Text: The Model Animal Research Institute of Nanjing University was commissioned to conduct the construction of JWA^flox/+ A129 mice and embryo cryopreservation, preservation, and thawing. These mice were bred with wild-type C57/BL6 mice for over six generations to give mice of C57/BL6 background. Villin-cre mice, provided by Shanghai Model Organisms Center, Inc., were C57/BL6 mice. The JWA-knockout mice (JWA^ko) and their littermate control (JWA^wt) counterparts were derived from an in-house conservation breed. The JWA^flox/flox mice were bred from the JWA^flox/+ mice. The intestinal epithelial JWA-knockout mice (JWA^IEC-ko) and control group (JWA^IEC-wt) were obtained through breeding JWA^flex/flex mice with Villin-cre mice.
The off-target model was established using JWA^IEC-ko mice and their JWA^IEC-wt littermates (8 weeks old), and the mice receiving radiation were divided into 4 groups: (1) a JWA^IEC-wt mice+vehicle group (n=5); (2) a JWA^IEC-wt mice+JAC4 group (n=5); (3) a JWA^IEC-ko mice+vehicle group (n=6); (4) a JWA^IEC-ko mice+JAC4 group (n=5). All mice were subjected to abdominal irradiation at 10 Gy. 7 days before radiation, 10 mg/kg JAC4 or an equal volume of vehicle (polyethylene glycol:ethanol:physiological saline=40:7.5:52.5, v/v/v) was administered intragastrically daily until the end of modeling. The blank control group (wild type, n=6) was not irradiated, and the modeling was terminated on day 4 after radiation.
To verify whether the protective effect of JAC4 on X-ray radiation-induced intestinal damage in mice is dependent on the expression of JWA, the present disclosure verified the targeting effect of JAC4 using JWA^IEC-ko mice.
JWA^IEC-ko and JWA^IEC-wt mice were treated daily with JAC4 (10 mg/kg) or an equal volume of vehicle (polyethylene glycol:ethanol:physiological saline=47.5:7.5:50, v/v/v), respectively, from 7 days before the ABI (10 Gy) exposure to 4 days after the exposure. […] Meanwhile, the contents of TNF-α and IL-1β were consistent with the results of FD4. […] As shown in panels E and F, ABI increased the activity of GSH-Px (530.8±207.8 vs. 406.2±197.9 U/mL) and decreased the activity of CAT (89.4 f 0.4 vs. 68.7±14.2 U/mL). JAC4 further enhanced the antioxidant enzymes in JWA^IEC-wt mice (815.1±203.9 vs. 530.8±207.8 U/mL and 85.9±8.2 vs. 68.7±14.2 U/mL; P<0.05, P<0.05). […] Intestinal tissues were isolated, and the expression of apoptotic molecules was detected by Western blot (FIG. 16J). In wild-type mice, compared with the control group, X-rays increased the expression of Bax and cleaved PARP1 in the small intestine.

[6] = JAC4+X-ray group relative to X-ray group
[7] = JAC4 1 μM or 10 μM 24 h + 12 Gy, vs control group
[8] = JWA^IEC-wt mice, JAC4 10 mg/kg daily

c1ccc(CSc2nnc(C3COc4ccccc4O3)o2)nc1 (stereo not shown) [JAC4]
mRNA level of anti-inflammatory factor IL-10 in lung tissue [1, 6]: 2.91 folds | mRNA level of proinflammatory factor IL-1P in lung tissue [1, 6]: 0.43 folds | mRNA level of proinflammatory factor TGF-β1 in lung tissue [1, 6]: 0.71 folds | mRNA level of proinflammatory factor TNF-α in lung tissue [1, 6]: 0.63 folds | HE staining of lung tissues ([1]; JAC4 treatment in combination with X-ray therapy): reduced inflammatory cell infiltration | anti-apoptotic proteins (Bcl-2) [2, 7]: increases | pro-apoptotic proteins (spliced PARP1, spliced Caspase-3, spliced Caspase-9, Bax) [2, 7]: decreases | XRCC1 expression level ([2]; JAC4 treatment after radiation (small intestine tissue and IEC-6 cells)): increased its expression level | mean survival after radiation ([3]; JAC4 100 mg/kg oral once daily, 7 days before to 3 days after abdominal X-ray 12 Gy, observation day 30): 16.8 ± 9.0 days | number of mice died ([3]; JAC4 100 mg/kg oral, ABI 12 Gy, 10 mice per group, day 15): 4 mice | number of mice survived ([3]; JAC4 100 mg/kg oral, ABI 12 Gy, 10 mice per group, day 15, when all vehicle mice had died): 6 mice | weight loss after radiation ([3]; JAC4 100 mg/kg oral, ABI 12 Gy, vs vehicle): slower | early apoptosis rate (Annexin V-PI) [4]: 5.74±0.80% | plasma CAT activity [5, 8]: 85.9±8.2 U/mL | plasma GSH-Px activity [5, 8]: 815.1±203.9 U/mL | plasma IL-1β [5, 8]: 57.76 ± 5.9 ng/mL | plasma TNF-α [5, 8]: 583.2 ± 78.2 ng/mL | plasma FD4 content ([5]; JWA^IEC-wt mice, JAC4 10 mg/kg daily, day 4): 6719.9 ± 1823.5 ng/mL | expression of Bax and cleaved PARP1 in small intestine (Western blot) ([5]; wild-type mice, JAC4 10 mg/kg): downregulated
